The values that follow come from publication PMC6987146, “Potent inhibition of HIV replication in primary human cells by novel synthetic polyketides inspired by Aureothin” (Scientific Reports, 2020).

A value given as a limit tells only on which side of the number the result lay.

The test system of data set [1] is HIV-1LAI. As to the kind of experiment: EASY-HIT assay: infectious virus production by LC5-RIC reporter cells exposed to HIV-1LAI. It counts as cell-based. As to the method: To identify natural compounds with anti-HIV activity we screened a collection of 10,000 natural compounds: Anti-HIV activity was evaluated by determining compound effects on infectious virus production by LC5-RIC cells which are highly susceptible for HIV and contain a DsRed1-encoding reporter gene activated by HIV-infection[6]–[8]. For screening, cultures of LC5-RIC reporter cells were first exposed to virus in the presence of the compound (first-step of the assay). Subsequently, supernatants of these cultures were transferred to secondary plates with uninfected LC5-RIC cells. The fluorescent signal of the cultures in the secondary plates served as a measure of compound effects on infectious virus production.
Anti-HIV activities of compounds were profiled in LC5-RIC cells with the EASY-HIT assay as described in[6]. Briefly, LC5-RIC cells were first exposed to virus and compounds (first step of the assay). Compound effects on infectious virus production were determined by transferring aliquots of supernatants of compound-treated cultures to secondary plates and measurement of fluorescent signal intensities in secondary plates after 72 h (second step of the assay). Fluorescent signal intensities determined for compound-treated cultures were normalized to those determined for untreated virus-exposed cultures.

Data set [2] relates to integrated proviral HIV-1 DNA. As to the kind of experiment: Integrated proviral HIV-1 DNA by Alu-PCR in LC5-RIC cells. It counts as cell-based. As to conditions: HIV-1LAI, 48 h, concentrations >2x IC90, normalized to DMSO. The protocol: Quantitative analysis of integrated copies of HIV proviral DNA by Alu-PCR was performed essentially as described in[46]. Briefly, LC5-RIC cells seeded at a density of 100,000 cells per well in 12-well plates and incubated for 24 h were exposed to test compounds and HIV-1LAI virus inoculum at an MOI of 0.5 and incubated for further 48 h at 37 °C, 5% CO2. Subsequently, cells were harvested and genomic DNA (gDNA) was extracted using the QIAamp DNA Mini Kit (QIAGEN) according to the manufacturer’s protocol. The relative amount of integrated proviral HIV-1 DNA was determined by two-step Alu-PCR[46]. The relative amounts of integrated proviral HIV-1 DNA in treated versus untreated samples were calculated by the 2^(−ΔΔCt) method, with ΔCT values representing CT (HIV) - CT (β-globin) for each sample and ΔΔCT values representing values of treated samples normalized to untreated samples.

In another data set the test system is HIV-2. Also on record: method as in PMID 22293827, PMID 10465070. As to conditions: virus intrinsically resistant; cited from earlier work.
For data set [3], the system named is HIV-1LAI. The data set is described as follows: Inhibition of HIV infection of human PBMCs (infectious virus production, read out on LC5-RIC cells). It counts as cell-based. As to conditions: human PBMCs exposed to HIV-1LAI, mean ± SD. The protocol: To evaluate anti-HIV efficacies of test compounds in primary human target cells, stimulated PBMCs were seeded in 96-well plates at a density of 500,000 cells per well, different #7concentrations of the compound (serial dilutions) and virus inoculum (MOI of 0.5) added to the PBMCs and cultures incubated for 48 h. Infectious virus production was quantified by transferring 35 µl of supernatant from the PBMC cultures to LC5-RIC cells, seeded in black 96-well plates one day earlier. LC5-RIC cultures were then incubated for 72 h and analysed for DsRed1 reporter expression and anti-HIV activity calculated as described for the EASY-HIT assay.

The subject of data set [4] is HIV-1LAI. As to the kind of experiment: Photostability of anti-HIV activity (24 h illumination vs dark, EASY-HIT read-out). As to conditions: 24 h illumination; compounds at IC90; LC5-RIC. It counts as cell-based. As to the method: Figure 1 Profiling of photostability of anti-HIV activity of Aureothin and synthetic Aureothin-derivatives. Anti-HIV activity of compound samples illuminated for 24 h were normalised to anti-HIV activity of samples of the same compound kept in the dark. Anti-HIV activity was measured by quantifying the amounts of infectious virus produced by HIV-1LAI exposed LC5-RIC cells treated with compounds at IC90 concentrations (Supplementary Table S1). […] Shown are means of at least three independent experiments with biological triplicates (n ≥ 3; m = 3) and the standard error of the mean (SEM) indicated.
LC5-RIC cells were plated as described for the EASY-HIT assay. […] Plates were incubated either in the dark or under constant illumination with a commercially available desk lamp (2X Philips Master PL-S-9W/840/2 P, 30 cm between light source and compounds) for 24 h at room temperature. For analysis of anti-HIV activity, compound samples were transferred to LC5-RIC cells and their anti-HIV activity determined by measuring compound effects on infectious virus production with the EASY-HIT assay. Relative photostability was calculated by normalizing the anti-HIV activity of the illuminated compounds to the antiviral activity of compounds kept in the dark.

The next data set concerns LC5-RIC cells. The data set is described as follows: CellTiter-Glo 2.0 cell viability assay in LC5-RIC cells. It counts as cell-based. As to the method: The following assays were used to profile cell safety of compound treatment in HIV-exposed cultures (LC5-RIC or PBMC): (1) CellTox^TM Green Cytotoxicity Assay, Promega, measures binding of a fluorescent dye to DNA of cells with impaired membrane integrity; (2) CellTiter-Glo® 2.0 Assay, Promega, which measures the amount of ATP in viable cells after lysis using an assay with luminescence read-out. Cells were plated into black 96-well plates followed by overnight incubation at 37 °C, 5% CO2. Compounds dissolved in DMSO were screened at multiple concentrations from 0.6 to 10,000 nM at a final DMSO concentration of 0.04% followed by additional 48 h incubation. Both assays were performed according to manufacturer’s recommendations and consecutively in the above mentioned order. Cells were washed once with PBS between the assays.
On the technique in general: Cellular ATP, detected with luciferase, serves as a proxy for viable cell number.

Where [5] appears, read: Human immunodeficiency virus 1, read-out: IC50, half maximal inhibitory concentration.
Where [6] appears, read: Human immunodeficiency virus 1, LC5-RIC cells exposed to HIV-1LAI, infectious virus production, mean ± SD, read-out: IC50, half maximal inhibitory concentration.

In the case of `C[C@@H]1CCO[C@H]2Cn3cc(C(=O)NCc4ccc(F)cc4F)c(=O)c(O)c3C(=O)N12` [Dolutegravir], in the data set with HIV-1LAI [1] (setting [5]), the IC50 is around 0.001 µM. Besides, the “reduction of levels of integrated proviral DNA” value in data set [2] is given as above 90%.

Regarding `O=C1Nc2ccc(Cl)cc2[C@@](C#CC2CC2)(C(F)(F)F)O1` [Efavirenz], the IC50 with HIV-1LAI [1] (setting [6]) was around 0.001 µM. Further, in data set [2], the “reduction of levels of integrated proviral DNA” value was above 90%. In addition, the “activity against HIV-2” value in the data set with HIV-2 was “ineffective against HIV-2”.

As to `COc1oc([C@H]2C/C(=C/C(C)=C/C(C)=C/C(C)=C/c3ccc([N+](=O)[O-])cc3)CO2)c(C)c(=O)c1C` [Neoaureothin], the IC50 in the data set with HIV-1LAI [1] (setting [6]) worked out at 0.0022 ± 6e-05 µM.

Regarding `CC(C)(C)NC(=O)[C@@H]1C[C@@H]2CCCC[C@@H]2CN1C[C@@H](O)[C@H](Cc1ccccc1)NC(=O)[C@H](CC(N)=O)NC(=O)c1ccc2ccccc2n1` [Saquinavir], the IC50 with HIV-1LAI [1] (setting [5]) is around 0.01 µM.

Turning to `COc1oc([C@H]2C/C(=C/C(C)=C/c3ccc([N+](=O)[O-])cc3)CO2)c(C)c(=O)c1C` [compound 1, Aureothin], the IC50 turned out to be 0.0053 ± 0.0004 µM in the data set on HIV-1LAI [1] (LC5-RIC cells exposed to HIV-1LAI, infectious virus production, mean ± SD, read-out: IC50, half maximal inhibitory concentration) and 0.0117 ± 0.00137 µM with HIV-1LAI [3] (read-out: IC50, half maximal HIV-inhibitory concentration). Also, the IC90 was 0.0268 ± 0.00254 µM with HIV-1LAI [1] (read-out: IC90, 90% inhibitory concentration, LC5-RIC cells exposed to HIV-1LAI, infectious virus production, mean ± SD) and 0.045 ± 0.00333 µM with HIV-1LAI [3] (read-out: IC90, 90% HIV-inhibitory concentration). Moreover, the “loss of anti-HIV-activity compared to the non-illuminated controls” value in the data set on HIV-1LAI [4] is recorded as at least 50%. In the data set with LC5-RIC cells, the cytotoxic concentration (CC50) (commonly the concentration giving 50% cytotoxicity) was above 10 µM.

For the molecule Enfuvirtide, the “activity against HIV-2” value in the data set with HIV-2 is on record as “ineffective against HIV-2”.
